# Patent US8846652B2, “Therapeutic uses of steroidal compounds” (Hunter-Fleming Limited, priority 2005, dated 2014)
# Peptide text beside a SMILES is read from it.
# What was measured:
# [1] = test system: spared nerve injury (SNI) model of neuropathic pain; experiment: Spared nerve injury (SNI) model of neuropathic pain, mechanical allodynia by von Frey filaments; assay type: in vivo, mice; conditions: daily oral gavage for two weeks, SNI lesion on day 8, thresholds measured at 2 pm over 7 days after SNI surgery
# Experimental: All animals were fed standard chow and water ad libitum. Animal care and procedures were performed within the United Kingdom Home Office protocols and guidelines. Age (10-12 weeks, 25-30 g) matched adult mice were used in all experiments (n=8/genotype).
# Mice were anaesthetised with Hypnorm (Fentanyl citrate 0.315 mg/ml+Fluanisone 10 mg/ml, Jansson):Hypnovel (Midazolam 5 mg/ml, Roche):water at a ratio of 1:1:2 at 4 μl/g. The recently described SNI model of neuropathic pain was used (Holmes et al (2003) Proc. Natl. Acad. Sci. U.S.A. 100 6180-6185). The spared nerve injury model (SNI), is performed by ligation of two branches of the sciatic nerve after it trifurcates, leaving one branch intact. […]
# In all tests, the examiner was blind to the genotype of the mice. Mechanical thresholds were measured with a series of calibrated von Frey filaments (Stoeling) from 0.005 g to a maximum of 3.63 g. […] Mechanical sensitivity was assessed on each hind paw, employing the up-down testing paradigm to determine the threshold force required to elicit a withdrawal response to 50% of stimulations [F. E. Holmes, A. Bacon, R. J. Pope, P. A. Vanderplank, N. C. […]
# 11β-hydroxy-Δ4-androstene-3,17-dione was administered to 8 adult male mice aged 10-12 weeks of age daily at 9.00 am by oral gavage for two weeks. […] At 2 pm on the days when testing took place, mechanosensory thresholds were measured.
# [2] = target: T1, GALR1 (Homo sapiens, UniProt P47211); conditions: cited from earlier work
# T1 sequence (P47211 1-349): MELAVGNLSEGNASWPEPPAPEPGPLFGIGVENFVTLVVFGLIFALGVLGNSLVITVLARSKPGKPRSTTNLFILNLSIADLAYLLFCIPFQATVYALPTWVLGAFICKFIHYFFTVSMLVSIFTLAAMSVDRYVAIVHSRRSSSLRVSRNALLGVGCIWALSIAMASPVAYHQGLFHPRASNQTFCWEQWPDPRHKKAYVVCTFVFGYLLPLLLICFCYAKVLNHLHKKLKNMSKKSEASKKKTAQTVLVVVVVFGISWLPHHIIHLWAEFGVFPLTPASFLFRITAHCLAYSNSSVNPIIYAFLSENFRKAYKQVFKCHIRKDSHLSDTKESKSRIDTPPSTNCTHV
# [3] = target: T2, GALR2 (Homo sapiens, UniProt O43603); conditions: cited from earlier work
# T2 sequence (O43603 1-387): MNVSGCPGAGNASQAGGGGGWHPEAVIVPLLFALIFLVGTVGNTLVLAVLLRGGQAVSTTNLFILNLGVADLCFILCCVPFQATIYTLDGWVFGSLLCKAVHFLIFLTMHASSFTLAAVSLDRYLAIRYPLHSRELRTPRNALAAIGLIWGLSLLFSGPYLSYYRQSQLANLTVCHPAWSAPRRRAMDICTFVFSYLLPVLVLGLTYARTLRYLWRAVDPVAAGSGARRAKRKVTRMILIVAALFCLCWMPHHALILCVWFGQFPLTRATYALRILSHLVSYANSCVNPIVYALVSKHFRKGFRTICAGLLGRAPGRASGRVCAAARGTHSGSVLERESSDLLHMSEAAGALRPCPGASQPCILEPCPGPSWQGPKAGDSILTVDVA
Structure (SMILES),mechanosensory allodynia (chronic pain behaviour) after SNI surgery [1],agonistic activity at GALR1 [2],agonistic activity at GALR2 [3]
"C[C@]12CCC(=O)C=C1CC[C@@H]1[C@@H]2[C@@H](O)C[C@]2(C)C(=O)CC[C@@H]12 [11β-hydroxy-Δ4-androstene-3,17-dione]",markedly and significantly attenuated mechanosensory allodynia,–,–
Cc1cc(=O)oc2cc(NC(=O)[C@H](CCCCN)NC(=O)[C@H](CC3CCCCC3)NC(=O)OCC3c4ccccc4-c4ccccc43)ccc12 [galnon] (HELM PEPTIDE1{[O=C(OCC1c2ccccc2-c2ccccc21)[*:2]].[Cha].K.[Cc1cc(=O)oc2cc(N[*:1])ccc12]}$$$$V2.0),–,equally activates and has agonistic activity,equally activates and has agonistic activity
